One experiment has as its system MRSA 43484. Put plainly: AAMP assay and checkerboard synergy. Type of experiment: cell-based, Staphylococcus aureus. The conditions noted are these: MRSA 43484; for MIC: Staphylococcus aureus, 24 h, read-out: MIC, single antimicrobial. How it is done: (§1) Antimicrobial activity was measured using the AAMP assay (Wiegand et al., 2008, Nat. Protoc., Vol. 3(2), p 163-175).
(§2) Synergy testing was done with a microtiter plate checkerboard assay as previously described (Orhan et al., 2005, J. Clin. Microbiol., Vol. 43(1), p 140-143). Briefly, equal amounts of antimicrobial A were applied on microtiter plate 1 in wells A1-H1 and then diluted two-fold to wells 2-12. Similarly, equal amounts of antimicrobial B were applied on microtiter plate 2 in wells A1-A12 and diluted two-fold in wells B-H. Volumes of 50 μl of antimicrobial A from each well of microtiter plate 1 were transferred into microtiter plate 3, except for wells H1-H12. Similarly, the same volumes were transferred from microtiter plate 2 into plate 3, except for wells A1-A8. A 100 μl volume of 25 times diluted ON bacterial culture of MRSA was transferred into each well of plate 3. A 50 μl volume of pure broth was added into each well in lines H1-H12 and A1-A8 which were used to estimate MIC values of pure substances (blank).
(§3) Three-component synergy was assessed by mixing the three components (100 μg of PenG, 50 μg of GarKS and 2.5 μg of MP1) into one well of a microtiter plate, compared with activity of individual antimicrobials on the same plate. The fractional inhibition concentration (FIC) which was used to define synergy was calculated as set forth in Example 1.

The subject of the next experiment is MRSA ATCC 33591-lux. Kind of experiment: AAMP assay and checkerboard synergy. In kind it is cell-based, Staphylococcus aureus. The conditions noted are these: for MIC: Staphylococcus aureus, 24 h, read-out: MIC, single antimicrobial. How it is done: as §1, §2, §3
The subject of the next experiment is MRSA USA-300. Put plainly: AAMP assay and checkerboard synergy. In kind it is cell-based, Staphylococcus aureus. The conditions noted are these: MRSA USA-300; for MIC: Staphylococcus aureus, 24 h, read-out: MIC, single antimicrobial. How it is done: as §1, §2, §3
The test system of experiment [1] is three MRSA strains (ATCC33591-lux, USA-300 and MRSA 43484). Put plainly: AAMP assay and checkerboard synergy, summary. Type of experiment: cell-based, Staphylococcus aureus. The conditions noted are these: for synergy with GarKS: checkerboard assay. The procedure: as §2, with “Briefly,” for “Synergy testing was done with a microtiter plate checkerboard assay as previously described (Orhan et al., 2005, J. Clin. Microbiol., Vol. 43(1), p 140-143). Briefly,”, “A 100 μl volume of 25 times diluted ON bacterial culture of MRSA was transferred into each well of plate 3.” left out
Three-component synergy was assessed by mixing the three components (100 μg of PenG, 50 μg of GarKS and 2.5 μg of MP1) into one well of a microtiter plate, compared with activity of individual antimicrobials on the same plate.

A further experiment relates to S. aureus LMG3026. Put plainly: AAMP assay (MIC), single components and formulation mixture. In kind it is cell-based, Staphylococcus aureus. The conditions noted are these: Staphylococcus aureus, LMG3026, 24 h; read-out: MIC, single component. How it is done: as §1, §3
A further experiment relates to S. aureus LMG3242. The description is as above. Type of experiment: cell-based, Staphylococcus aureus. The conditions noted are these: Staphylococcus aureus, LMG3242, 24 h; read-out: MIC, single component. How it is done: as §1, §3
The test system of another experiment is S. aureus LMG3255. Described as above. Type of experiment: cell-based, Staphylococcus aureus. The conditions noted are these: Staphylococcus aureus, LMG3255, 24 h; read-out: MIC, single component. The procedure: as §1, §3
A further experiment concerns S. aureus LMG3258. Described as above. Type of experiment: cell-based, Staphylococcus aureus. The conditions noted are these: Staphylococcus aureus, LMG3258, 24 h; read-out: MIC, single component. How it is done:
as §1, §3

A further experiment has as its system S. aureus LMG3263. Described as above. Type of experiment: cell-based, Staphylococcus aureus. The conditions noted are these: Staphylococcus aureus, LMG3263, 24 h; read-out: MIC, single component. The procedure: as §1, §3
A further experiment relates to S. aureus LMG3264. The experiment is described as above. In kind it is cell-based, Staphylococcus aureus. The conditions noted are these: Staphylococcus aureus, LMG3264, 24 h; read-out: MIC, single component. The procedure:
as §1, §3

The test system of a further experiment is S. aureus LMG3265. The experiment is described as above. Type of experiment: cell-based, Staphylococcus aureus. The conditions noted are these: Staphylococcus aureus, LMG3265, 24 h; read-out: MIC, single component. How it is done: as §1, §3
The subject of a further experiment is S. aureus LMG3266. The description is as above. In kind it is cell-based, Staphylococcus aureus. The conditions noted are these: Staphylococcus aureus, LMG3266, 24 h; read-out: MIC, single component. How it is done: as §1, §3
The next experiment deals with S. aureus LMG3271. The experiment is described as above. In kind it is cell-based, Staphylococcus aureus. The conditions noted are these: Staphylococcus aureus, LMG3271, 24 h; read-out: MIC, single component. How it is done: as §1, §3
The subject of another experiment is S. aureus LMG3307. Described as above. The conditions noted are these: Staphylococcus aureus, LMG3307, 24 h; read-out: MIC, single component. In kind it is cell-based, Staphylococcus aureus. The procedure: as §1, §3
The subject of another experiment is S. aureus LMG3314. The description is as above. In kind it is cell-based, Staphylococcus aureus. The conditions noted are these: Staphylococcus aureus, LMG3314, 24 h; read-out: MIC, single component. How it is done:
as §1, §3

The test system of the next experiment is S. aureus LMG3322. The experiment is described as above. In kind it is cell-based, Staphylococcus aureus. The conditions noted are these: Staphylococcus aureus, LMG3322, 24 h; read-out: MIC, single component. The procedure:
as §1, §3

Another experiment has as its system S. aureus LMG3328. Described as above. Type of experiment: cell-based, Staphylococcus aureus. The conditions noted are these: Staphylococcus aureus, LMG3328, 24 h; read-out: MIC, single component. How it is done:
as §1, §3

Experiment [2] deals with S. pseudintermedius MRSP 45. Put plainly: microbe, parasite or virus in culture. Type of experiment: cell-based, Staphylococcus pseudintermedius. The conditions noted are these: 24 h; for MIC: Staphylococcus pseudintermedius, MRSP45, MRSP 45, Table 8, read-out: MIC, single component. The procedure:
as §1, §2
(§4) Antimicrobial activity was measured using the AAMP assay as described in Example 2.
(§5) Synergy testing was performed as in Example 2.

The test system of a further experiment is MRSA ATCC 33591. Kind of experiment: microbe, parasite or virus in culture. Type of experiment: cell-based, Staphylococcus aureus. The conditions noted are these: for MIC: Staphylococcus aureus, 24 h, read-out: MIC, single antimicrobial. The procedure:
as §1, §2, §4, §5

Read-outs that look alike come from different tables or passages of the source. No end group written: not given here.

`CC1(C)S[C@@H]2[C@H](NC(=O)[C@H](N)c3ccccc3)C(=O)N2[C@H]1C(=O)O` [Amp, Ampicillin]: the “MIC of the antimicrobial in comb. with GarKS” value (“MIC of the antimicrobial” for short) (with MRSA 43484; in the experiment with MRSA ATCC 33591-lux (MRSA ATCC 33591-lux); in the experiment on MRSA USA-300; in experiment [1] (All three strains)) was 16 µg/mL throughout. Also, the MIC with MRSA 43484 is less than 2500 µg/mL; with MRSA ATCC 33591-lux, less than 2500 µg/mL; with MRSA USA-300, less than 2500 µg/mL; in experiment [1] (Staphylococcus aureus, 24 h, All three strains, read-out: MIC, single antimicrobial), more than 2500 µg/mL. Also, the “MIC of the component when combined” value in [1] (GarKS with Amp or PenG) was 16 µg/mL. Also, the “synergy with GarKS” value in experiment [1] is “moderate synergy”.

Take `CC[C@H]1OC(=O)[C@H](C)[C@@H](O[C@H]2C[C@@](C)(OC)[C@@H](O)[C@H](C)O2)[C@H](C)[C@@H](O[C@@H]2O[C@H](C)C[C@H](N(C)C)[C@H]2O)[C@](C)(O)C[C@@H](C)C(=O)[C@H](C)[C@@H](O)[C@]1(C)O` [Ery, Erythromycin]: the “MIC of the antimicrobial” value with MRSA 43484 is 32 µg/mL; in the experiment with MRSA ATCC 33591-lux (MRSA ATCC 33591-lux), 62 µg/mL; with MRSA USA-300, 16 µg/mL; in [1] (All three strains), 16 to 62 µg/mL. Moreover, the MIC in the experiment with MRSA 43484 was 62 µg/mL; in the experiment on MRSA ATCC 33591-lux (MRSA ATCC 33591-lux), more than 250 µg/mL; in the experiment with MRSA USA-300 it was 31 µg/mL; with S. aureus LMG3026, less than 2.5 µg/mL; in the experiment on S. aureus LMG3242, less than 2.5 µg/mL; with S. aureus LMG3255, less than 2.5 µg/mL. Further, the MIC in the experiment with S. aureus LMG3258 is less than 2.5 µg/mL; in the experiment with S. aureus LMG3263, more than 2500 µg/mL; with S. aureus LMG3264 it was less than 2.5 µg/mL; with S. aureus LMG3265 it was more than 2500 µg/mL; with S. aureus LMG3266, more than 2500 µg/mL; in the experiment on S. aureus LMG3271, less than 2.5 µg/mL. For the same molecule, the MIC in the experiment with S. aureus LMG3307 was less than 2.5 µg/mL; with S. aureus LMG3314, less than 2.5 µg/mL; in the experiment with S. aureus LMG3322, less than 2.5 µg/mL; with S. aureus LMG3328, less than 2.5 µg/mL; in [2] it was more than 250 µg/mL. Moreover, in the experiment with MRSA ATCC 33591-lux (MRSA ATCC 33591-lux), the “MIC, single antimicrobial” value is more than 250 µg/mL. Moreover, in experiment [1], the “synergy with GarKS” value is on record as “no synergy or only additive effects”.

Turning to `CC(C)=CCCC(C)=CCCC(C)=CCO` [Farnesol], in the experiment on MRSA ATCC 33591, the “MIC of MP1 in comb. with the labelled antimicrobial” value (“MIC of MP1” for short) was found to be 0.08 µg/mL, the “MIC of the labelled antimicrobial in comb. with MP1” value (shortened to “MIC of the labelled antimicrobial”) is 14 µg/mL and the MIC is 56 µg/mL.

Turning to `CC(=O)O[C@H]1C[C@@]2(C)[C@@H](C[C@@H](O)[C@H]3[C@@]4(C)CC[C@@H](O)[C@@H](C)[C@@H]4CC[C@@]32C)/C1=C(\CCC=C(C)C)C(=O)O` [Fusidic acid], in the experiment on MRSA ATCC 33591, the “MIC of MP1” value came out at 0.15 µg/mL, the “MIC of the labelled antimicrobial” value came to 0.04 µg/mL and the MIC worked out at 0.6 µg/mL. Further, in experiment [2], the MIC was determined as 1.25 µg/mL.

`CN(C)[C@@H]1C(O)=C(C(N)=O)C(=O)[C@@]2(O)C(O)=C3C(=O)c4c(O)cccc4[C@@](C)(O)[C@H]3C[C@@H]12` [Tet, Tetracycline]: the entries for the “MIC of the antimicrobial” value in the experiment with MRSA 43484, in the experiment with MRSA ATCC 33591-lux (MRSA ATCC 33591-lux) and with MRSA USA-300 were 0.6 µg/mL, 38 µg/mL and 0.6 µg/mL, respectively. For the same molecule, the MIC with S. aureus LMG3026 was 77 µg/mL; in the experiment on S. aureus LMG3255, 2.4 µg/mL; in the experiment on S. aureus LMG3263, 2.4 µg/mL; in the experiment with S. aureus LMG3264, 2.4 µg/mL; in the experiment with S. aureus LMG3265 it was 2.4 µg/mL; in the experiment with S. aureus LMG3271, 2.4 µg/mL. The MIC in the experiment with S. aureus LMG3307 is 0.6 µg/mL; in the experiment on S. aureus LMG3322 it was less than 0.3 µg/mL; in the experiment on MRSA ATCC 33591, 150 µg/mL; in [2] it was 150 µg/mL. The “MIC of MP1” value in the experiment with MRSA ATCC 33591 was 0.08 µg/mL. In addition, the “MIC of the labelled antimicrobial” value in the experiment with MRSA ATCC 33591 is 10 µg/mL.

Take `C=C(NC(=O)[C@@H](NC(=O)[C@H](Cc1c[nH]cn1)NC(=O)[C@@H](NC(=O)[C@H](CO)NC(=O)[C@@H]1CS[C@@H](C)[C@H]2NC(=O)[C@H](C)NC(=O)[C@H](NC(=O)[C@H](CCCCN)NC(=O)[C@H](CCSC)NC(=O)[C@H](CC(N)=O)NC(=O)[C@@H]3CS[C@@H](C)[C@@H](NC(=O)[C@H](CCCCN)NC(=O)[C@@H]4CS[C@@H](C)[C@@H](NC(=O)[C@@H]5CSC[C@@H](NC(=O)/C(=C/C)NC(=O)[C@@H](N)[C@@H](C)CC)C(=O)N[C@@H]([C@@H](C)CC)C(=O)NC(=C)C(=O)N[C@@H](CC(C)C)C(=O)N5)C(=O)N5CCC[C@H]5C(=O)NCC(=O)N4)C(=O)NCC(=O)N[C@@H](C)C(=O)N[C@@H](CC(C)C)C(=O)N[C@@H](CCSC)C(=O)NCC(=O)N3)[C@H](C)SC[C@H](NC2=O)C(=O)N[C@@H](CC(N)=O)C(=O)N1)[C@@H](C)CC)C(C)C)C(=O)N[C@@H](CCCCN)C(=O)O` [nisinZ]: in the experiment on MRSA ATCC 33591, the “MIC of MP1” value is 0.3 µg/mL; the “MIC of the labelled antimicrobial” value was 0.8 µg/mL; the “MIC, single antimicrobial” value is more than 12.5 µg/mL.

With “MIKKFPNPYTLAAKLTTYEINWYKQQYGRYPWERPVA [EJ97 short]”, the “MIC, single component” value in experiment [2] is more than 25 µg/mL.

For the origin of these results see patent US20240041976A1, “COMPOSITION AND USE” (priority 2020, published 2024).
